Assay [1] concerns A549. Put plainly: Induction of apoptosis in human A549 cells assessed as early apoptotic cells at 20 uM measured after 72 hrs by annexin V-FITC staining based flow cytometry (reference value: 0.13%). Format: functional.
Assay [2] relates to A549. Briefly: Induction of apoptosis in human A549 cells assessed as viable cells at 20 uM measured after 72 hrs by annexin V-FITC staining based flow cytometry (reference value: 99.1%). Format: functional. The conditions noted are these: read-out: Activity.
Assay [3] has as its system A549. Briefly: Induction of apoptosis in human A549 cells assessed as early apoptotic cells at 40 uM measured after 72 hrs by annexin V-FITC staining based flow cytometry (reference value: 0.13%). Format: functional.
Assay [4] concerns A549. Put plainly: Antiproliferative activity against human A549 cells assessed as inhibition of cell growth measured after 72 hrs under irradiation by CCK-8 method. Format: functional, cell-based. Conditions: A549, light or radiation study.
The test system of assay [5] is A549. Put plainly: Induction of apoptosis in human A549 cells assessed as viable cells at 30 uM measured after 72 hrs by annexin V-FITC staining based flow cytometry (reference value: 99.1%). Format: functional. Conditions: read-out: Activity.
Assay [6] relates to A549. Briefly: Induction of apoptosis in human A549 cells assessed as late apoptotic cells at 30 uM measured after 72 hrs by annexin V-FITC staining based flow cytometry (reference value: 0.20%). Format: functional.
In assay [7] the test system is A549. Put plainly: Induction of apoptosis in human A549 cells assessed as necrotic cells at 30 uM measured after 72 hrs by annexin V-FITC staining based flow cytometry (reference value: 0.005%). Format: functional.
The subject of assay [8] is A549. Put plainly: Induction of apoptosis in human A549 cells assessed as necrotic cells at 40 uM measured after 72 hrs by annexin V-FITC staining based flow cytometry (reference value: 0.005%). Format: functional.
The test system of assay [9] is A549. Briefly: Induction of apoptosis in human A549 cells assessed as late apoptotic cells at 20 uM measured after 72 hrs by annexin V-FITC staining based flow cytometry (reference value: 0.20%). Format: functional.
For assay [10], the system named is A549. Briefly: Induction of apoptosis in human A549 cells assessed as necrotic cells at 10 uM measured after 72 hrs by annexin V-FITC staining based flow cytometry (reference value: 0.005%). Format: functional.
In assay [11] the test system is A549. Briefly: Induction of apoptosis in human A549 cells assessed as necrotic cells at 20 uM measured after 72 hrs by annexin V-FITC staining based flow cytometry (reference value: 0.005%). Format: functional.
In assay [12] the test system is A549. Briefly: Induction of apoptosis in human A549 cells assessed as viable cells at 40 uM measured after 72 hrs by annexin V-FITC staining based flow cytometry (reference value: 99.1%). The conditions noted are these: read-out: Activity. Format: functional.
Assay [13] has as its system A549. Briefly: Induction of apoptosis in human A549 cells assessed as late apoptotic cells at 10 uM measured after 72 hrs by annexin V-FITC staining based flow cytometry (reference value: 0.20%). Format: functional.
Assay [14] deals with A549. Briefly: Induction of apoptosis in human A549 cells assessed as viable cells at 10 uM measured after 72 hrs by annexin V-FITC staining based flow cytometry (reference value: 99.1%). Conditions: read-out: Activity. Format: functional.
Assay [15] addresses T1, Histone deacetylase 8 (Homo sapiens) (UniProt Q9BY41).
T1 sequence (whole entry): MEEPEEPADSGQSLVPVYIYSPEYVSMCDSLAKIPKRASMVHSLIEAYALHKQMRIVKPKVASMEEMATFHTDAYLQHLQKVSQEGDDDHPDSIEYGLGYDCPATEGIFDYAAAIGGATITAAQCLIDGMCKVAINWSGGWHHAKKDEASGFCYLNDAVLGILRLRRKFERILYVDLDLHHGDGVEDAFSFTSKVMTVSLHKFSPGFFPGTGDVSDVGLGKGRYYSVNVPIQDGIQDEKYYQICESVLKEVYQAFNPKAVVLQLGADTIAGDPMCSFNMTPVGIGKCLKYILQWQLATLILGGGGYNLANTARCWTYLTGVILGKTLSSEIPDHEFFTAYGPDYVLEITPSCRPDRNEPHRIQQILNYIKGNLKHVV
Put plainly: Induction of degradation in HDAC8 in human A549 cells at 2 microM measured after 20 hrs by Western blot analysis relative to control. Format: cell-based.

The test system of assay [16] is A549. Briefly: Induction of apoptosis in human A549 cells assessed as early apoptotic cells at 10 uM measured after 72 hrs by annexin V-FITC staining based flow cytometry (reference value: 0.13%). Format: functional.
The test system of assay [17] is A549. Put plainly: Induction of apoptosis in human A549 cells assessed as late apoptotic cells at 40 uM measured after 72 hrs by annexin V-FITC staining based flow cytometry (reference value: 0.20%). Format: functional.
For assay [18], the system named is A549. Put plainly: Antiproliferative activity against human A549 cells assessed as inhibition of cell growth measured after 72 hrs by CCK-8 method. Format: functional, cell-based. Conditions: A549, 72 h.
Assay [19] concerns A549. Put plainly: Induction of apoptosis in human A549 cells assessed as early apoptotic cells at 30 uM measured after 72 hrs by annexin V-FITC staining based flow cytometry (reference value: 0.13%). Format: functional.
For assay [20], the target named is T1, Histone deacetylase 8 (Homo sapiens). Briefly: Induction of degradation in HDAC8 in human A549 cells at 200 nM measured after 20 hrs by Western blot analysis relative to control. Format: cell-based.

This passage reports Activity, viability and IC50 results from ChEMBL document CHEMBL5316263, “Structure-Based Discovery of Selective Histone Deacetylase 8 Degraders with Potent Anticancer Activity” (J Med Chem, 2023).

With `COc1ccc(Cn2ccc3ccc(C(=O)NO)cc32)cc1`, the Activity was found to be 50.7% in assay [1]; 46.3% in [3]; 12% in [6]; 0.47% in assay [7]; 1.21% in assay [8]; 9.71% in assay [9]. Besides, the Activity in assay [10] turned out to be 0.7%; in assay [11], 0.67%; in [13], 11.7%; in assay [15], 5%; in assay [16], 42%; in assay [17], 24.9%. The figures for the Activity in assay [19] and in assay [20] were 63% and 3.6%, respectively. In assay [2], the viability at 20 µM worked out at 29%. Also, the IC50 came to 13.1 µM in assay [4] and 15.8 µM in assay [18]. Moreover, the viability at 30 µM in assay [5] was determined as 24.6%. For the same compound, the viability at 40 µM in [12] stood at 28.6%. Also, the viability at 10 µM in [14] was found to be 45.6%.
